Measurements as given in patent publication US8299262B2, “Pyridylmethyl-sulfonamide compounds” (BASF SE, priority 2007, dated 2012).
Where two headings read alike, the source gives them in different places.

Experiments:
Thielaviopsis basicola = assay: Synergistic mixtures, microtiter test, Thielaviopsis basicola (Use Example 31); format: cell-based; conditions: single compound
Septoria tritici = assay: Synergistic mixtures, microtiter test, leaf blotch pathogen Septoria tritici (Use Example 26); format: cell-based; conditions: single compound, 4 ppm
Fusarium culmorum = assay: Synergistic mixtures, microtiter test, Fusarium culmorum (Use Example 27); format: cell-based; conditions: single compound
Pyrenophora teres = assay: Synergistic mixtures, microtiter test, net blotch pathogen Pyrenophora teres (Use Example 29); format: cell-based; conditions: single compound
Colletotrichum truncatum = assay: Synergistic mixtures, microtiter test, Colletotrichum truncatum (Use Example 28); format: cell-based; conditions: single compound
Gaeumannomyces graminis = assay: Synergistic mixtures, microtiter test, Gaeumannomyces graminis (Use Example 30); format: cell-based; conditions: single compound
Puccinia recondita = assay: Synergistic mixtures, greenhouse, preventative control of brown rust on wheat caused by Puccinia recondita (Use Example 34); format: in vivo; conditions: single compound, untreated control 90% disease
Protocol: These percentages were converted into efficacies. An efficacy of 0 means that the growth level of the pathogens corresponds to that of the untreated control; an efficacy of 100 means that the pathogens were not growing.
The expected efficacies of active compound mixtures were determined using Colby's formula [R. S. Colby, Calculating synergistic and antagonistic responses of herbicide combinations, Weeds 15, 20-22 (1967)] and compared with the observed efficacies. E=x+y−x·y/100 Colby's formula • E expected efficacy, expressed in % of the untreated control, when using the mixture of the compounds A and B at the concentration a and b • x efficacy, expressed in % of the untreated control, when using compound A at a concentration of a • y efficacy, expressed in % of the untreated control, when using compound B at a concentration of b A) Microtiter Tests
The spray solutions were prepared in several steps:
The stock solution were prepared as follows: a mixture of acetone and/or dimethylsulfoxide and the wetting agent/emulsifier Wettol, which is based on ethoxylated alkylphenoles, in a relation (volume) solvent-emulsifier of 99 to 1 was added to 25 mg of the compound to give a total of 10 ml. Water was then added to total volume of 100 ml.
This stock solution was diluted with the described solvent-emulsifier-water mixture to the given concentration. The compounds pyraclostrobin, boscalid and epoxiconazole were used as commercial finished formulations and diluted with water to the stated concentration of the active compound.
The first two developed leaves of pot-grown wheat seedling were sprayed to run-off with an aqueous suspension, containing the concentration of active ingredient or their mixture as described below. The next day the plants were inoculated with spores of Puccinia recondita. To ensure the success the artificial inoculation, the plants were transferred to a humid chamber without light and a relative humidity of 95 to 99% and at temperatures between 20 and 24° C. for 24 h. Then, the plants were cultivated for 6 days in a greenhouse chamber at 20 to 24° C. and a relative humidity between 65 and 70%. The extent of fungal attack on the leaves was visually assessed as % diseased leaf area.

Phakopsora pachyrhizi = assay: Comparative greenhouse test, curative action against soybean rust Phakopsora pachyrhizi (Use Example 22); format: in vivo; conditions: curative spray on soybean, untreated control 100
Protocol: The active compounds were formulated separately or together as a stock solution comprising 25 mg of active compound which was made up to 10 ml using a mixture of acetone and/or dimethyl sulfoxide (DMSO) and the emulsifier Wettol EM 31 (wetting agent having emulsifying and dispersing action based on ethoxylated alkylphenols) in a volume ratio of solvent/emulsifier of 99 to 1. This solution was then made up to 100 ml using water. This stock solution was diluted with the solvent/emulsifier/water mixture described to the active compound concentration given below.
Leaves of potted soybean seedlings were dusted with a suspension of spores of rust of soybean (Phakopsora pachyrhizi). The plants were then placed in a chamber with high atmospheric humidity (90 to 95%), at 23 to 27° C., for 24 hours. During this time, the spores germinated and the germinal tubes penetrated into the leaf tissue. The next day, the infected plants were sprayed to runoff point with an aqueous suspension having the concentration of active compound stated in table 4 (250 ppm). After drying of the sprayed suspension, the test plants were returned to the greenhouse and cultivated at temperatures between 23 and 27° C. and at 60 to 80% relative atmospheric humidity for a further 14 days. The extent of the rust development on the leaves was then determined visually.

Alternaria solani = assay: Synergistic mixtures, microtiter test, early blight pathogen Alternaria solani (Use Example 24); format: cell-based; conditions: single compound, 0.063 ppm
Pyricularia oryzae [1] = format: cell-based; conditions: single compound
Verticillium dahliae = conditions: single compound
Phytophthora infestans = format: cell-based; conditions: single compound
Fusarium oxysporum = conditions: single compound, 0.25 ppm
Pyricularia oryzae [2] = format: cell-based; conditions: control =100%, day 7

Compound	Observed efficacy (%) (Thielaviopsis basicola; 16 ppm)	Observed efficacy (%) (Septoria tritici)	Observed efficacy (%) (Fusarium culmorum; 16 ppm)	Observed efficacy (%) (Pyrenophora teres; 0.25 ppm)	Observed efficacy (%) (Colletotrichum truncatum; 4 ppm)	Observed efficacy (%) (Puccinia recondita; 16 ppm)	Observed efficacy (%) (Alternaria solani)	Observed efficacy (%) (Puccinia recondita; 4 ppm)	Observed efficacy (%) (Thielaviopsis basicola; 1 ppm)	other results
Cc1nccc(CNS(=O)(=O)c2ccc(Oc3ccccn3)cc2)c1C [Example 33]	9%	22%	1%	0%	24%	33%	4%	–	–	Observed efficacy (%) (Gaeumannomyces graminis; 0.063 ppm): 4%; Observed efficacy (%) (Gaeumannomyces graminis; 0.25 ppm): 21%; infection in [%] at 250 ppm (Phakopsora pachyrhizi): 5%; Observed efficacy (%) (Pyricularia oryzae [1]; 0.25 ppm): 38%
COc1cc(CNS(=O)(=O)c2ccc(Oc3cccc(C)n3)cc2)ccn1 [Example 45]	–	50%	2%	–	25%	0%	1%	0%	–	Observed efficacy (%) (Pyrenophora teres; 1 ppm): 25%; Observed efficacy (%) (Pyricularia oryzae [1]; 0.063 ppm): 30%
COc1cnccc1CNS(=O)(=O)c1ccc(Oc2nccc(C(F)(F)F)n2)cc1 [Example 64]	20%	–	0%	5%	–	0%	0%	0%	–	Observed efficacy (%) (Pyricularia oryzae [1]; 1 ppm): 12%
Cc1nccc(CNS(=O)(=O)c2ccc(Oc3ccc(Br)cn3)cc2)c1C [Example 71]	56%	43%	1%	20%	29%	0%	4%	–	9%	Observed efficacy (%) (Verticillium dahliae; 4 ppm): 55%; Observed efficacy (%) (Gaeumannomyces graminis; 0.063 ppm): 52%
COc1cc(CNS(=O)(=O)c2ccc(Oc3ccc(Cl)cn3)cc2)ccn1 [Example 74]	–	58%	1%	33%	–	44%	0%	–	32%	Observed efficacy (%) (Colletotrichum truncatum; 16 ppm): 35%
COc1cc(CNS(=O)(=O)c2ccc(Oc3ncc(C(F)(F)F)cc3C)cc2)ccn1 [Example 160]	–	55%	3%	11%	37%	–	–	0%	14%	Observed efficacy (%) (Phytophthora infestans; 1 ppm): 17%; Observed efficacy (%) (Puccinia recondita; 1 ppm): 0%; Observed efficacy (%) (Pyricularia oryzae [1]; 0.25 ppm): 60%
Cc1cc(Oc2ccc(C(F)(F)F)cn2)ccc1S(=O)(=O)NCc1ccnc(C)c1C [Example 203]	–	45%	1%	34%	36%	44%	0%	22%	0%	Observed efficacy (%) (Verticillium dahliae; 1 ppm): 52%; Observed efficacy (%) (Verticillium dahliae; 4 ppm): 56%; Observed efficacy (%) (Thielaviopsis basicola; 4 ppm): 13%
COC(=O)N(OC)c1ccccc1COc1ccn(-c2ccc(Cl)cc2)n1 [Pyraclostrobin, reference compound]	–	–	–	–	–	–	–	–	–	Observed efficacy (%) (Phytophthora infestans; 0.00025 ppm): 8%; Observed efficacy (%) (Thielaviopsis basicola; 0.25 ppm): 19%; Observed efficacy (%) (Fusarium culmorum; 0.25 ppm): 0%; Observed efficacy (%) (Pyrenophora teres; 0.016 ppm): 52%; Observed efficacy (%) (Fusarium oxysporum): 0%; Observed efficacy (%) (Colletotrichum truncatum; 0.063 ppm): 27%; Observed efficacy (%) (Colletotrichum truncatum; 0.25 ppm): 60%; Observed efficacy (%) (Gaeumannomyces graminis; 0.00025 ppm): 29%; Observed efficacy (%) (Gaeumannomyces graminis; 0.001 ppm): 57%; Observed efficacy (%) (Puccinia recondita; 0.016 ppm): 0%; Observed efficacy (%) (Puccinia recondita; 0.063 ppm): 0%; Observed efficacy (%) (Puccinia recondita; 0.25 ppm): 0%; Observed efficacy (%) (Pyricularia oryzae [1]; 0.001 ppm): 17%
COc1cc(CNS(=O)(=O)c2ccc(Oc3ccccc3)cc2)ccn1 [comparative example 1, reference compound]	–	–	–	–	–	–	–	–	–	growth in [%] at 31 ppm (Pyricularia oryzae [2]): 97%
Cc1nccc(CNS(=O)(=O)c2ccc(Oc3ccccc3)cc2)c1C [comparative example 2, reference compound]	–	–	–	–	–	–	–	–	–	infection in [%] at 250 ppm (Phakopsora pachyrhizi): 100%
